Laboratory results from patent US12329739B2, “Isoflavonoid compounds and methods for the treatment of cancer” (Aardvark Therapeutics, Inc., priority 2010, dated 2025).

How the values were obtained:
[1] = system: COLO205; experiment: MTT proliferation assay, COLO205; format: cell-based, human; conditions: Homo sapiens, COLO 205; CRC, COLO205, 120 h of exposure
Description: (§1) The human non-small cell lung adenocarcinoma lines NCI-H1299 (CRL-5803), NCI-H460 (HTB-177), NCI-H358 (CRL-5807), NCI-H838 (CRL-5844), the human colorectal adenocarcinoma lines COLO 205 (CCL-222), HCT-15 (CCL-225) and the human gastric cancer cell line NCI-N87 (CRL-5822) were cultured in RPMI 1640 medium containing 2 g/L sodium bicarbonate (Hyclone/Invitrogen) supplemented with 2 mM L-glutamine (Gibco) 1 mM sodium pyruvate (Sigma), 10 mM HEPES (Sigma) and 4500 mg/L glucose (Sigma). The human non-small cell lung adenocarcinoma line NCI-H2126 (CCL-256) was cultured in DMEM:F12(1:1) (Hyclone/Invitrogen) containing 2.5 mM L-glutamine 2.4 g/L sodium bicarbonate supplemented with 5% fetal bovine serum (FBS), an additional 2 mM L-glutamine, 15 mM HEPES, 0.005 mg/ml insulin (Sigma), 0.01 mg/ml transferrin (Sigma), 30 nM sodium selenite (Sigma), 10 nM hydrocortisone (Sigma) and 10 nM beta-estradiol (Sigma). The human colorectal adenocarcinoma line HT-29 (HTB-38) and the human gastric cancer cell lines OE-19 (#96071721) and MKN1 (JCRB0252) were cultured in RPMI 1640 media supplemented with 2 mM L-glutamine.
(§2) Proliferation Assays. IC50 values were determined for each cell line. Cells were seeded in 96-well plates at an appropriate cell density as determined from growth kinetics analysis and cultured for 5 days in the absence and presence of the test compounds. Cell proliferation was assessed after the addition of 20 μl of 3-4,5 dimethylthiazol-2,5-diphenyl tetrazolium bromide (MTT, 5 mg/ml in PBS, Sigma) for 5 hrs at 37° C. according to manufacturer's instructions. IC50 values were calculated from semi-log plots of % of control proliferation on the y-axis against log dose on the x-axis.
(§3) Anti-proliferative Activity of Isoflavonoid Derivatives. IC50 values were determined for each cell line after 120 h of exposure.

[2] = system: 4405; experiment: MTT proliferation assay, 4405; format: cell-based; conditions: Melanoma, 4405, 120 h of exposure
Description: as §2, §3

[3] = system: SK-Hep-1; experiment: MTT proliferation assay, SK-Hep-1; format: cell-based, human; conditions: Homo sapiens, SK-HEP1; Liver, SK-Hep-1, 120 h of exposure
Description: (§4) The human hepatocellular carcinoma lines HepG2 (HB-8065), SK-HEP-1 (HTB-52) and the normal human lung fibroblast line IMR-90 (CCL-186) were cultured in Minimum Essential Eagles Medium containing 2 mM L-glutamine, 2.2 g/L sodium bicarbonate, supplemented with 1 mM sodium pyruvate and 0.1 mM non-essential amino acids. The human hepatocellular carcinoma line JHH-1 (JCRB1062) was cultured in Williams E Medium (Invitrogen) containing 2.2 g/L sodium bicarbonate, supplemented with 2 mM L-glutamine. The hepatocellular carcinoma line HuH-7 (JCRB0403) was cultured in DMEM, supplemented with 2 mM L-glutamine.
as §2, §3

[4] = system: R-182; experiment: MTT proliferation assay, R-182; format: cell-based; conditions: Ovarian, R-182, 120 h of exposure
Description: Tissue culture. The multidrug resistant primary epithelial ovarian cancer cell line R-182 TARA was a gift from Dr. Gil Mor (Yale University, New Haven, CT, USA). This cell line was derived by explant from ovarian tumors and cultured as previously described. All other cell lines were purchased from American Type Culture Collection (ATCC, Manassas, VA, USA) with the exception of MKN1, HuH-7, JHH-1, which were purchased from the Japanese Collection of Research Bioresources (JCRB, Osaka, Japan), and OE19 which was purchased from the European Collection of Cell Cultures (ECACC, Salisbury, UK).
as §2, §3

[5] = system: CP70; experiment: MTT proliferation assay, CP70; format: cell-based; conditions: 120 h
Description: as §2, §3

[6] = system: A2780; experiment: MTT proliferation assay, A2780; format: cell-based; conditions: Homo sapiens, A2780, 120 h
Description: as §2, §3

[7] = system: MM200; experiment: MTT proliferation assay, MM200; format: cell-based; conditions: Melanoma, MM200, 120 h of exposure
Description: as §2, §3

[8] = system: LNCaP; experiment: MTT proliferation assay, LNCaP; format: cell-based; conditions: Homo sapiens, Prostate, 120 h of exposure
Description: as §2, §3

[9] = system: PC3; experiment: MTT proliferation assay, PC3; format: cell-based; conditions: Homo sapiens, PC-3, 120 h, Prostate, PC3, 120 h of exposure
Description: as §2, §3

[10] = system: NCI-H460; experiment: MTT proliferation assay, NCI-H460; format: cell-based, human; conditions: Homo sapiens; NSCLC, NCI-H460, 120 h of exposure
Description: as §1, §2, §3

[11] = system: A2058; experiment: MTT proliferation assay, A2058; format: cell-based; conditions: Homo sapiens, A2058, 120 h, Melanoma, A2058, 120 h of exposure
Description: as §2, §3

[12] = system: HepG2; experiment: MTT proliferation assay, HepG2; format: cell-based, human; conditions: Homo sapiens; Liver, HepG2, 120 h of exposure
Description: as §4, §2, §3

[13] = system: SKBR-3; experiment: MTT proliferation assay, SKBR-3; format: cell-based, human; conditions: Homo sapiens, SK-BR-3, 120 h
Description: The human colorectal adenocarcinoma line HCT-116 (CCL-247) and the human breast adenocarcinoma line SK-BR-3 (HTB-30) were cultured in McCoy's 5a Medium (Invitrogen) containing 1.5 mM L-glutamine and 2.2 g/L sodium bicarbonate. The human colorectal adenocarcinoma line SW620 (CCL-227) was cultured in Leibovitz's L-15 Medium (Invitrogen) containing 2.05 mM L-glutamine.
as §2, §3

[14] = system: A549; experiment: MTT proliferation assay, A549; format: cell-based; conditions: Homo sapiens; NSCLC, A549, 120 h of exposure
Description: as §2, §3

[15] = system: HuH-7; experiment: MTT proliferation assay, HuH-7; format: cell-based, human; conditions: Homo sapiens; Liver, HuH-7, 120 h of exposure
Description: as §4, §2, §3

[16] = system: DU145; experiment: MTT proliferation assay, DU145; format: cell-based; conditions: Homo sapiens, DU-145; Prostate, DU145, 120 h of exposure
Description: as §2, §3

[17] = system: MDA-MB-468; experiment: MTT proliferation assay, MDA-MB-468; format: cell-based, human; conditions: Homo sapiens, MDA-MB-468, 120 h, Breast, MDA-MB-468, 120 h of exposure
Description: The human gastric cancer cell line AGS (CRL-1739) was cultured in Hams F-12K (Kaighans modification) medium containing 2 mM L-glutamine, 2.5 g/L sodium bicarbonate and 2 mM sodium pyruvate. The human breast adenocarcinoma line MDA-MB-468 (HTB-132) was cultured in DMEM:F12 (1:1) medium containing 2.5 mM L-glutamine, 2.4 g/L sodium bicarbonate, supplemented with an additional 2 mM L-glutamine.
as §2, §3

[18] = system: CALU3; experiment: MTT proliferation assay, CALU3; format: cell-based; conditions: Homo sapiens, Calu-3; NSCLC, CALU3, 120 h of exposure
Description: as §2, §3

[19] = system: A2780 ovarian cancer cells; experiment: Combination with carboplatin, proliferation of A2780 cells; format: cell-based; conditions: A2780 cell line; 31 compared with compound 32
Description: In vitro toxicity in normal and cancer cells. Cells were seeded in 96-well plates at an appropriate cell density as determined from growth kinetics analysis. Depending on the plating efficiency and lag phase of individual cell lines, cells were allowed to plate down prior to drug exposure. Intra-experimental single agent controls were included to ensure IC50 values obtained for each cell line matched previous IC50 determinations. Four analogue concentrations were employed in each analysis. Analogue concentrations used in each assay were chosen based on IC50 values, which formed the top concentration of analogue used. Subsequent concentrations were chosen based on simple ½ or 1/10 dilutions of the top analogue concentration employed (i.e. 2, 1, 0.5, 0.25 μM). Nine 1/10 serial dilutions of chemotherapeutic were employed with the top chemotherapeutic concentration being 50 μM.
For combined analysis, analogue concentrations were held constant through 1/10 serial dilutions of chemotherapeutic in growth medium (top chemotherapeutic concentration employed was 50 μM). Combined cultures were cultured for 5 days.
The sequence of administration effect of each agent on chemotherapeutic IC50 values was assessed by exposing plated cells to a single agent in sequence for 24 hr. To assess the isoflavonoid derivative→chemotherapeutic sequence, plated cells were first exposed to the appropriate analogue concentrations and incubated at 37° C. for 24 hr. Cells were washed with growth medium and then exposed to the appropriate chemotherapeutic concentrations and incubated for 24 hr. Cells were then washed and incubated for a further 3 days. To assess the chemotherapeutic→isoflavonoid derivative sequence, the procedure was reversed.
Cell proliferation was assessed after the addition of 20 μl of 3-4,5 dimethylthiazol-2,5-diphenyl tetrazolium bromide (MTT, 2.5 mg/ml in PBS, Sigma) for 3-4 hrs at 37° C. according to manufacturer's instructions. IC50 values were calculated from semi-log plots of % of control proliferation on the y-axis against log dose on the x-axis.
3-D model analysis of the cytotoxic interaction between drug A and drug B enables the representation of predicted inhibitory effect of two drugs in combination in 3 dimensions to reveal actual regions of synergy or antagonism. The 3D synergy plots are based on a theory of “Theoretical Additivity” (TA or […]) as outlined by Kanzawa et al. Theoretical Additivity was calculated from the cytotoxicities of drug A and drug B as monotherapies using the following formula which assumes the drugs are mutually exclusive inhibitors: […]
The TA is calculated for each combination of drug concentrations and subtracted from the observed experimental effect for each combination to give a measurement of synergistic or enhanced action.
Combination index (CI) analysis, which employs the median-effect principle correlating drug dose to cytotoxicity, was also employed to assess synergy. The median-effect equation is utilized to calculate the dose of a drug that inhibits “x” percent of cells (Chou and Talalay, 1984). D=Dm[fa/(1−fa)]^1/m
In vitro Assessment of Combination of Optically Active Compound 31 and Carboplatin. Combination studies employed both 24 hr concurrent exposure, and 24 hr sequential exposure (racemic compound 32→Carboplatin) regimens. In both studies, four analogue concentrations (0.25, 0.5, 1 and 5 μM) were held constant against titrated carboplatin. When 1 and 5 μM of compound 32 was assessed in combination with the lowest concentration of carboplatin employed in this study (0.4 μM), no IC50 for carboplatin was achieved due the high levels of cell kill observed (30-40% of control).

[20] = system: MM2200; experiment: MTT proliferation assay, MM2200; format: cell-based; conditions: Table 2, Melanoma, MM2200, 120 hrs of exposure
Description: as §2, §3
Activity data is provided is Table 2.

[21] = Ovarian, CP70, 120 h of exposure
[22] = Ovarian, A2780, 120 h of exposure
[23] = Breast, SKBR-3, 120 h of exposure

IC50 [1] [µM] | IC50 [3] [µM] | IC50 [6, 22] [µM] | IC50 [8] [µM] | IC50 [9] [µM] | IC50 [10] [µM] | IC50 [12] [µM] | IC50 [13, 23] [µM] | IC50 [14] [µM] | IC50 [15] [µM] | IC50 [16] [µM] | IC50 [17] [µM] | IC50 [18] [µM] | Structure (SMILES) | IC50 [2] [µM] | IC50 [4] [µM] | IC50 [5, 21] [µM] | IC50 [7] [µM] | IC50 [11] [µM] | further results
≥ 10 | 1.6 to 10 | 1.6 to 10 | 1.6 to 10 | 1.6 to 10 | 1.6 to 10 | 1.6 to 10 | 0.51 to 1.5 | 1.6 to 10 | 1.6 to 10 | 1.6 to 10 | 1.6 to 10 | 1.6 to 10 | COc1ccc(C2c3ccc(O)c(C)c3OCC2c2ccc(O)cc2)cc1C (centres unmarked) [Compound 7, 3-(4-hydroxyphenyl)-4-(4-methoxy-3-methylphenyl)-8-methylchroman-7-ol] | 1.6 to 10 | 1.6 to 10 | 1.6 to 10 | ≥ 10 | 1.6 to 10 | –
– | – | – | – | – | – | – | – | – | – | – | – | – | Oc1ccc([C@@H]2c3ccc(O)cc3OC[C@@H]2c2ccc(O)cc2)cc1 [Compound 33] | – | – | – | – | – | IC50 ([5]; Table 2, Ovarian, CP70, 120 hrs of exposure): ≥ 10 µM; IC50 ([6]; Table 2, Ovarian, A2780, 120 hrs of exposure): ≥ 10 µM; activity enhancement in combination with carboplatin [19]: did not impart any activity enhancement or antagonistic effect; IC50 ([13]; Table 2, Breast, SKBR-3, 120 hrs of exposure): ≥ 10 µM; IC50 [20]: ≥ 10 µM
0.51 to 1.5 | ≤ 0.15 | ≤ 0.15 | ≤ 0.15 | ≤ 0.15 | ≤ 0.15 | ≤ 0.15 | ≤ 0.15 | 0.15 to 0.5 | ≤ 0.15 | ≤ 0.15 | ≤ 0.15 | ≤ 0.15 | Cc1c(O)ccc2c1OC[C@@H](c1ccc(O)cc1)[C@H]2c1ccc(O)cc1 [d-5, d-cis-3-(4-hydroxyphenyl)-4-(4-hydroxyphenyl)-8-methylchroman-7-ol] | ≤ 0.15 | ≤ 0.15 | ≤ 0.15 | 0.15 to 0.5 | ≤ 0.15 | –
≥ 10 | ≥ 10 | ≥ 10 | ≥ 10 | ≥ 10 | ≥ 10 | ≥ 10 | ≥ 10 | ≥ 10 | ≥ 10 | ≥ 10 | ≥ 10 | ≥ 10 | Cc1c(O)ccc2c1OC[C@H](c1ccc(O)cc1)[C@@H]2c1ccc(O)cc1 [l-5, l-cis-3-(4-hydroxyphenyl)-4-(4-hydroxyphenyl)-8-methylchroman-7-ol] | ≥ 10 | ≥ 10 | ≥ 10 | ≥ 10 | ≥ 10 | –
